Data published in patent publication US20240358847A1, “TROP2 BINDERS AND CONJUGATES THEREOF” (MERCK SHARP & DOHME LLC, priority 2023, published 2024).
pEC50: −log10 of the molar value.

Tests used:
[1] = test system: BxPC-3 cells; test: On-Cell ELISA binding, BxPC3 cells (TROP2 high); type: cell-based, human; set-up: AUC (BxPC-3): unit not given beside the values; details: for pEC50: On-Cell ELISA, TROP2 high cells; for ΔAUC: AUC (BxPC-3) minus AUC (MDA-MB-231-KWL); for AUC (BxPC-3): area under On-Cell ELISA binding curve; for ΔAUC/AUC (BxPC-3): differential BxPC3 vs MDA-MB-231-KWL
Protocol: (§1) Cell lines expressing TROP2.
(§2) Cells were plated in duplicate onto 96-well plates, and primary antibody was diluted in cell culture medium with a starting concentration of 30 μg/mL (200 nM) with a dilution factor of 1:5. After 3× wash, secondary antibody was added for 1 hour at 1 ug/ml, washed three times and absorbance was measured at 450 nm. Data was plotted and analyzed. EC50 ([…]) was measured along with area under the curve (AUC) for each cell line.

[2] = test system: MDA-MB-231-KWL cells; test: On-Cell ELISA binding, MDA-MB-231-KWL cells (TROP2 low); type: cell-based; set-up: AUC (MDA-MB-231-KWL): unit not given beside the values; details: for pEC50: read-out: MDA-MB-231-KWL EC50, On-Cell ELISA, TROP2 low cells; for AUC (MDA-MB-231-KWL): area under On-Cell ELISA binding curve
Protocol: as §1, §2

Row | Substance | pEC50 [1] | pEC50 [2] | further results
1 | mAb_Lm_I93G_HC: Sacituzumab LC I93G mutein, Sacituzumab HC | 9.74 | 9.66 | 
2 | mAb_Lm_D28H_HC: Sacituzumab LC D28H mutein, Sacituzumab HC | 9.80 | 9.87 | 
3 | mAb_LC_Hm_Y107N: Sacituzumab HC Y107N mutein, Sacituzumab LC | 9.15 | 8.73 | 
4 | mAb_Lm_Y53R_HC: Sacituzumab LC Y53R mutein, Sacituzumab HC | 9.45 | 9.26 | 
5 | mAb_Lm_H91Y_HC: Sacituzumab LC H91Y mutein, Sacituzumab HC | 8.45 |  | 
6 | mAb_LC_Hm_Y105S: Sacituzumab HC Y105S mutein, Sacituzumab LC | 9.51 |  | 
7 | mAb_Lm_T94F_HC: Sacituzumab LC T94F mutein, Sacituzumab HC | 9.63 | 9.43 | 
8 | mAb_LC_Hm_F29G: Sacituzumab HC F29G mutein, Sacituzumab LC | 9.49 | 9.35 | 
9 | mAb_Lm_Y92N_HC: Sacituzumab LC Y92N mutein, Sacituzumab HC | 9.08 |  | 
10 | mAb_LC_Hm_S104D: Sacituzumab HC S104D mutein, Sacituzumab LC | 9.67 |  | 
11 | mAb_LC_Hm_G33S: Sacituzumab HC G33S mutein, Sacituzumab LC | 8.65 |  | 
12 | mAb_LC_Hm_F108T: Sacituzumab HC F108T mutein, Sacituzumab LC | 9.17 | 8.92 | 
13 | mAb_Lm_S50L_HC: Sacituzumab LC S50L mutein, Sacituzumab HC | 7.62 |  | 
14 | mAb_Lm_Y53N_HC: Sacituzumab LC Y53N mutein, Sacituzumab HC | 9.65 | 9.07 | 
15 | mAb_Lm_S30R_HC: Sacituzumab LC S30R mutein, Sacituzumab HC | 9.16 |  | 
16 | mAb_Lm_S50T_HC: Sacituzumab LC S50T mutein, Sacituzumab HC | 9.65 | 9.25 | 
17 | mAb_LC_Hm_W106L: Sacituzumab HC W106L mutein, Sacituzumab LC | 9.49 |  | 
18 | mAb_Lm_V29R_HC: Sacituzumab LC V29R mutein, Sacituzumab HC | 9.55 |  | 
19 | mAb_LC_Hm_W106H: Sacituzumab HC W106H mutein, Sacituzumab LC | 8.93 |  | ΔAUC [1]: 192.47; AUC (BxPC-3) [1]: 215.2; ΔAUC/AUC (BxPC-3) [1]: 0.605; AUC (MDA-MB-231-KWL) [2]: 22.73

Row | Substance | pEC50 [1] | pEC50 [2] | further results
20 | mAb_Lm_Y92E_HC: Sacituzumab LC Y92E mutein, Sacituzumab HC | 8.16 |  | 
21 | mAb_LC_Hm_W106A: Sacituzumab HC W106A mutein, Sacituzumab LC | 8.78 |  | 
22 | mAb_Lm_Y53D_HC: Sacituzumab LC Y53D mutein, Sacituzumab HC; HC SEQ ID NO: 11, LC SEQ ID NO: 13 | 9.62 | 8.31 | 
23 | mAb_Lm_H91K_HC: Sacituzumab LC H91K mutein, Sacituzumab HC | 9.05 | 8.71 | 
24 | mAb_LC_Hm_F101E: Sacituzumab HC F101E mutein, Sacituzumab LC | 9.32 | 8.57 | 
25 | mAb_LC_Hm_S103T: Sacituzumab HC S103T mutein, Sacituzumab LC |  |  | ΔAUC [1]: 171.04; AUC (BxPC-3) [1]: 204.7; ΔAUC/AUC (BxPC-3) [1]: 0.538; AUC (MDA-MB-231-KWL) [2]: 33.66
26 | mAb_LC_Hm_G33I: Sacituzumab HC G33I mutein, Sacituzumab LC | 9.66 | 9.11 | 
27 | mAb_Lm_Y92A_HC: Sacituzumab LC Y92A mutein, Sacituzumab HC | 8.04 |  | 
28 | mAb_LC_Hm_F108S: Sacituzumab HC F108S mutein, Sacituzumab LC | 9.49 | 9.19 | 
29 | mAb_LC_Hm_N31P: Sacituzumab HC N31P mutein, Sacituzumab LC | 9.43 | 8.94 | 
30 | mAb_Lm_Y53P_HC: Sacituzumab LC Y53P mutein, Sacituzumab HC | 9.66 | 9.20 | 
31 | mAb_Lm_Y53S_HC: Sacituzumab LC Y53S mutein, Sacituzumab HC | 9.55 | 9.52 | 
32 | mAb_LC_Hm_F101T: Sacituzumab HC F101T mutein, Sacituzumab LC | 9.47 | 9.06 | 
33 | mAb_Lm_A32P_HC: Sacituzumab LC A32P mutein, Sacituzumab HC | 9.04 |  | 
34 | mAb_Lm_Y53V_HC: Sacituzumab LC Y53V mutein, Sacituzumab HC | 9.65 | 9.46 | 
35 | mAb_LC_Hm_Y32E: Sacituzumab HC Y32E mutein, Sacituzumab LC | 9.38 | 8.80 | 
36 | mAb_Lm_Q89V_HC: Sacituzumab LC Q89V mutein, Sacituzumab HC | 8.78 | 8.07 | 
37 | mAb_Lm_A32Q_HC: Sacituzumab LC A32Q mutein, Sacituzumab HC | 7.73 |  | 
38 | mAb_LC_Hm_F108Q: Sacituzumab HC F108Q mutein, Sacituzumab LC | 9.50 | 9.44 | 
